Columns and labels:
[1] = Photostationary states; assay type: physicochemical; settings: for PSS, % trans-isomer, dark: dark-adapted
[2] = target: T1, human PPARα ligand binding domain (Gal4 hybrid) (Homo sapiens, UniProt Q07869); assay: Gal4 hybrid reporter gene assay, PPARα; settings: trans-isomer in the dark, HEK293T
T1 sequence (Q07869 239-466 limits assumed): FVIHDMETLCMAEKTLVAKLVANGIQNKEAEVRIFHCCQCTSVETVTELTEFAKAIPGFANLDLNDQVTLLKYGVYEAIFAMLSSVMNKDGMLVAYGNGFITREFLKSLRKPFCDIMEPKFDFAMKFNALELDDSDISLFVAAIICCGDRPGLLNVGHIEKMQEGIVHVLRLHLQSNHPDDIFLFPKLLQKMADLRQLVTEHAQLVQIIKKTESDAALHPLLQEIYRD

[3] = tested on: human PPAR response element (PPRE), endogenous PPARγ; assay: PPRE reporter gene assay in PPARγ expressing HepG2 cells; assay type: cell-based; settings: trans-isomer
[4] = tested on: PPARγ; settings: read-out: PPARγ agonist EC50; cited from earlier work
[5] = after 365 nm illumination, CDCl3
[6] = after 460 nm illumination, CDCl3

Row | Structure (SMILES) | PSS, % trans-isomer, 365 nm [1, 5] [%] | PSS, % trans-isomer, 460 nm [1, 6] [%] | PSS, % trans-isomer, dark ([1]; CDCl3) [%] | EC50 [4] [nM] | also measured
1 | O=C(c1ccccc1)c1ccccc1N[C@@H](Cc1ccc(/N=N/c2ccccc2)cc1)C(=O)O [AzoGW1929, (S,E)-2-((2-benzoylphenyl)amino)-3-(4-(phenyldiazenyl)phenyl)propanoic acid] |  |  |  |  | PSS, % trans-isomer, 365 nm ([1]; after 365 nm illumination for five minutes, MeOD-d4): 67%; PSS, % trans-isomer, 460 nm ([1]; after 460 nm illumination for five minutes, MeOD-d4): 76%; PSS, % trans-isomer, dark ([1]; MeOD-d4): 95%
2 | O=C1NC(=O)C(Cc2ccc(/N=N/c3ccccc3)cc2)S1 (stereo not shown) [AzoRosi, (E)-5-(4-(phenyldiazenyl)benzyl)thiazolidine-2,4-dione] | 4 | 80 | 100 |  | PPARα activation at 10 μM [2]: 8% activation at 10 μM
3 | Cc1ccccc1-c1ccc(/N=N/c2ccc(CC3SC(=O)NC3=O)cc2)cc1 (stereo not shown) [AzoRosi-4, (E)-5-(4-((2′-methyl-[1,1′-biphenyl]-4-yl)diazenyl)benzyl)thiazolidine-2,4-dione] | 23 | 83 | 99 |  | PPRE activation at 10 μM [3]: some PPRE activation was observed
4 | O=C1NC(=S)NC(=O)C1=Cc1ccc(OCc2ccccc2)c(Cl)c1 [MDG548] |  |  |  | 215 | 

Source: paper PMC11684002 (Journal of medicinal chemistry, 2020)
